Data: article PMC2730992 (Molecular and biochemical parasitology, 2009)

T1: Tb AdoMetDC/Tc Prozyme (Trypanosoma brucei, UniProt P50244)
T1 sequence (P50244 1-85): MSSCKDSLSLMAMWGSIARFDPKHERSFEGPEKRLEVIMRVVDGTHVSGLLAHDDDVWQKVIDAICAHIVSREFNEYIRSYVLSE
T1 sequence (P50244 86-370): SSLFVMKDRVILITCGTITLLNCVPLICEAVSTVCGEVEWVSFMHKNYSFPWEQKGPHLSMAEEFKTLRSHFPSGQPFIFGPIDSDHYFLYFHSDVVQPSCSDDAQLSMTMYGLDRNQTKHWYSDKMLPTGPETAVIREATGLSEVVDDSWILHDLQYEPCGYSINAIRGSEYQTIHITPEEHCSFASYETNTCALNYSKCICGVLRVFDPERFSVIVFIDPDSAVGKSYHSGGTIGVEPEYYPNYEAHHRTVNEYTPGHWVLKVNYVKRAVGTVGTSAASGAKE
T1 sequence (Q4DQQ6 1-326 partner): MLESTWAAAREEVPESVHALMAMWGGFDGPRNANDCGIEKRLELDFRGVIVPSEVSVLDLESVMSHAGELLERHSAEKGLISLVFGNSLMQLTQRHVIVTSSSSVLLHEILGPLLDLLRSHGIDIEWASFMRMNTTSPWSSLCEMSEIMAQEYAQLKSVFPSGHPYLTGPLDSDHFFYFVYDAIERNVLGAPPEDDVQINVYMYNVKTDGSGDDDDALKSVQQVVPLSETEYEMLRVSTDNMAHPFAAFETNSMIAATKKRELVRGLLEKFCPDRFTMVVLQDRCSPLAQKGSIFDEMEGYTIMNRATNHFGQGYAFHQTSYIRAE

T2: Tc AdoMetDC/Tb Prozyme (Trypanosoma cruzi, UniProt O76240)
T2 sequence (O76240 1-85): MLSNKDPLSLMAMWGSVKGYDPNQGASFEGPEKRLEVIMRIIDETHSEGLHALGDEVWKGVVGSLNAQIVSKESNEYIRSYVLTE
T2 sequence (O76240 86-370): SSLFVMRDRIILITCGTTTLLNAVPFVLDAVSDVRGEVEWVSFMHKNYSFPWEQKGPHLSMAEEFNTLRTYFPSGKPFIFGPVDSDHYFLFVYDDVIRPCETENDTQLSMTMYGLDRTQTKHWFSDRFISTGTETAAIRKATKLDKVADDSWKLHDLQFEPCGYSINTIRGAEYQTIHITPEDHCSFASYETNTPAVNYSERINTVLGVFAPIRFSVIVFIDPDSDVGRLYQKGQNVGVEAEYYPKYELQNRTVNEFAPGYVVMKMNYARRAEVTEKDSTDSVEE
T2 sequence (A5HNV6 1-325 partner): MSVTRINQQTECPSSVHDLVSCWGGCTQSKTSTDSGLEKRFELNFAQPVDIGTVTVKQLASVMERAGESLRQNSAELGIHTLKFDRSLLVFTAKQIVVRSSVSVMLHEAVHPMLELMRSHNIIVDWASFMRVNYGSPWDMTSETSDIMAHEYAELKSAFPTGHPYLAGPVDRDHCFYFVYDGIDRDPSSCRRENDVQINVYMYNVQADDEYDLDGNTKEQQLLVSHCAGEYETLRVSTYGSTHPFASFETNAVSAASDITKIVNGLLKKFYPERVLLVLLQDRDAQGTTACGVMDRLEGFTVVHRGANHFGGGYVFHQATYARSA

B1: Tc AdoMetDC/Tb Prozyme (Trypanosoma cruzi) (protein)
chain 1: MLSNKDPLSLMAMWGSVKGYDPNQGASFEGPEKRLEVIMRIIDETHSEGLHALGDEVWKGVVGSLNAQIVSKESNEYIRSYVLTE
chain 2: SSLFVMRDRIILITCGTTTLLNAVPFVLDAVSDVRGEVEWVSFMHKNYSFPWEQKGPHLSMAEEFNTLRTYFPSGKPFIFGPVDSDHYFLFVYDDVIRPCETENDTQLSMTMYGLDRTQTKHWFSDRFISTGTETAAIRKATKLDKVADDSWKLHDLQFEPCGYSINTIRGAEYQTIHITPEDHCSFASYETNTPAVNYSERINTVLGVFAPIRFSVIVFIDPDSDVGRLYQKGQNVGVEAEYYPKYELQNRTVNEFAPGYVVMKMNYARRAEVTEKDSTDSVEE

Key:
Tb AdoMetDC/Tc Prozyme = biological target: T1, Tb AdoMetDC/Tc Prozyme; format: biochemical; details: 5 mM putrescine; allosteric activator; pH 8.0, 37 °C
Tc AdoMetDC/Tb Prozyme = biological target: T2, Tc AdoMetDC/Tb Prozyme; format: biochemical; details: 5 mM putrescine; allosteric activator; pH 8.0, 37 °C
purified protein = substrate: C[S+](CC[C@H](N)C(=O)O)C[C@H]1O[C@@H](n2cnc3c(N)ncnc32)[C@H](O)[C@@H]1O; experiment: purified protein; details: pH 8.0; 37.0 °C

| Molecule | activation of AdoMet decarboxylation, 14CO2 trapping (Tb AdoMetDC/Tc Prozyme) | activation of AdoMet decarboxylation, 14CO2 trapping (Tc AdoMetDC/Tb Prozyme) | Km (purified protein) [µM] |
| --- | --- | --- | --- |
| NCCCCN [putrescine] | when putrescine was included, both cross-species heterodimers were further activated | when putrescine was included, both cross-species heterodimers were further activated | – |
| B1 | – | – | 440 ± 14 |
